From patent US10435355B2, “Inhibitors of fatty acid amide hydrolase (FAAH) enzyme with improved oral bioavailability and their use as medicaments” (THE REGENTS OF THE UNIVERSITY OF CALIFORNIA, priority 2014, dated 2019) come the findings set out here.

This series in a line: Pharmacokinetic experiment (PO and IV) in cannulated rats. The series is classed as in vivo, Sprague-Dawley rats. The following applies: rat, plasma. The procedure: Pharmacokinetic Experiment and Analysis
Compounds were administered orally (PO) and intravenously (IV) to cannulated Sprague-Dawley rats at 10 and 3 mg/kg, respectively. Vehicle was: PEG400/Tween 80/Saline solution at 10/10/80 (% in volume), respectively. Three animals per dose were treated. Blood samples at 0, 15, 30, 60, 120, 240, 480 and 1440 min after administration were collected for PO arm. Blood samples at 0, 5, 15, 30, 60, 120 and 240 min after administration were collected for IV arm. Plasma was separated from blood by centrifugation for 15 min at 3500 rpm a 4° C., collected in a Eppendorf tube and frozen (−80° C.). Control animals treated with vehicle only were also included in the experimental protocol.
Preparation of Samples, Standard Curve and QC Samples for UPLC-MS Analysis
Samples were thawed in an ice bath and after a short centrifugation transferred (50 μL) into a 96-deepwell plate and added with 150 μL of acetonitrile spiked with 200 nM Warfarin (the Internal Standard, I.S.). After agitation (3 min) the plate was centrifuged at 3000 g for 10 min at 4° C. […]
Compounds plasma levels were monitored on a Xevo TQ UPLC-MS/MS system (Waters, Milford USA), using the calibration curve and the internal standard (Warfarin). […] Plasma levels data were analyzed using PKSolutions excel application (Summit Research Service, USA) to derive the most important pharmacokinetic parameters. […]

Consider `CNC(=O)c1cccc(-c2cccc(OC(=O)NC3CCCCC3)c2)c1`, for which the “AUC PO (10 mg/kg)” value came out at 90205 ng·min/mL.
